Experimental data published in paper PMC7708426, “Identification of potential TNF-α inhibitors: from in silico to in vitro studies” (Scientific Reports, 2020).

Tested on: TNF-α
Experiment: TNF-α inhibition in LPS-activated THP-1 cells (Human TNF-α ELISA of supernatants)
Type: cell-based
Conditions: PMA-differentiated THP-1 cells activated with 50 ng/mL LPS, 4 h, mean ± SEM of triplicate
Method: THP-1 cells (Human monocytic leukemia cells) were obtained from Biobank facility, ICCBS, University of Karachi, which was purchased from the ECACC (European Collection of Cell Cultures, UK). The cells were cultured in RPMI-1640, supplemented with 10% FBS (fetal bovine serum), 50 µmol/L mercaptoethanol (Merck, Damstadt, Germany), 5.5 mmol/L glucose (BioM Laboratories, Chemical Division, Malaysia), 2 mmol/L; L-glutamine (PAA Laboratories, GmbH, Pasching, Austria), 10 mmol/L HEPES (MP Biomedicals, lLLKIRCH, France) and 1 mmol/L sodium pyruvate (GIBCO, Grand Island, NY, USA). Cells were harvested and 2 × 10^5 cells/mL were then added to 24-well tissue culture plates. Differentiation of cells was performed by adding 20 ng/mL of phorbol myristate acetate (PMA) (SERVA, Heidelberg, Germany), and by incubation at 37 °C for 24 h in 5% CO2. […] The supernatants were analyzed for the level of TNF-α using Human TNF-α ELISA Kit (R&D Systems, Minneapolis, USA).
Briefly the working concentration of 4 μg/mL in PBS from 720 μg/mL of mouse anti-human TNF-α capture antibodies were used for coating of 96 well ELISA plate. […] The reaction was stopped by adding 50 μL of stop solution (2 N H2SO4) and plate was then read at wavelength of 450 nm in ELISA reader (ELX800 NB, DIA LAB, Wr. Neudrof, Austria).

SMILES: CC(=O)CCCCn1c(=O)c2c(ncn2C)n(C)c1=O [Pentoxifylline]
- IC50: 341 ± 7.54 µM
